Some test systems named below: HCT-116; MDA-MB-231; SK-MEL-2; RXF 393; 786-0; SK-MEL-28; CAKI-1; HL-60; EKVX; HT-29; COLO 205; SK-OV-3; SF-295; A549; HCT-15; SN12C; IGROV-1; OVCAR-4; DU-145; SF-539.
Holding throughout (test): inhibition of tumour cell growth, NCI panel, 48 h

Consider 11 compounds from ChEMBL document CHEMBL1201862, “PubChem BioAssay data set” (2004).

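A five-concentration, 48-hour dose response in 96-well plates underlies each endpoint, interpolated linearly between surrounding concentrations. GI50: concentration for 50% inhibition of growth.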 Calls of active or inactive are those of the source. No stated cut-off is given here; in the data, active = GI50 up to about 1.1 µM and inactive = higher. Where only a bound is given, the exact number is not on record here.

Regarding `CC(=O)Nc1c(C)cc(OCC(=O)O)cc1C`, the GI50 with HCT-116, with MDA-MB-231, in the test with SK-MEL-2, in the test on RXF 393, in the test on 786-0 and in the test on SK-MEL-28 was > 100 µM (inactive) in each case. Also, the GI50 with CAKI-1, in the test on HL-60, with EKVX, with HT-29, in the test on COLO 205 and in the test with SK-OV-3 was > 100 µM (inactive) each time. Moreover, the GI50 in the test with SF-295 is > 100 µM (inactive); in the test with A549, > 100 µM (inactive); with HCT-15, greater than 100 µM; with SN12C, > 100 µM (inactive); in the test on IGROV-1 it was > 100 µM (inactive); with OVCAR-4, > 100 µM (inactive). In the test on DU-145, the GI50 was > 100 µM (inactive).

For the compound `O=C(c1ccccc1)n1c(Cc2ccccc2)nc2cc(C34CC5CC(CC(C5)C3)C4)ccc21`, the GI50 in the test with HCT-116 is 44.3 µM (inactive); with MDA-MB-231 it was 54.2 µM (inactive); in the test on SK-MEL-2 it was 31.9 µM (inactive); in the test with RXF 393, 27.4 µM (inactive); in the test on 786-0, 61.9 µM (inactive); in the test with SK-MEL-28, 84.3 µM (inactive). Further, the GI50 in the test with CAKI-1 was > 100 µM (inactive); with HL-60, 33.7 µM (inactive); in the test with EKVX, 81.8 µM (inactive); with HT-29, 43.6 µM (inactive); with COLO 205 it was 27.7 µM (inactive); in the test with SK-OV-3 it was 96.2 µM (inactive). In addition, the GI50 in the test on SF-295 was 52.2 µM (inactive); in the test with A549, 37.7 µM (inactive); in the test with HCT-15 it was 18.2 µM; in the test with SN12C, 35.8 µM (inactive); in the test with IGROV-1, 53.6 µM (inactive); with OVCAR-4, > 100 µM (inactive). Further, in the test on DU-145, the GI50 was 56.5 µM (inactive).

`CC(C)C(=O)NCC[C@@H](CNC(=O)OC(C)(C)C)NC(=O)OC(C)(C)C`: the GI50 in the test with HCT-116, in the test on MDA-MB-231, with SK-MEL-2, with RXF 393, with 786-0 and in the test with SK-MEL-28 was > 100 µM (inactive) in each case. Also, the GI50 in the test with CAKI-1, with SF-539, with EKVX, in the test with HT-29, in the test on COLO 205 and with SK-OV-3 was > 100 µM (inactive) throughout. In addition, the GI50 with SF-295 was > 100 µM (inactive); with A549, > 100 µM (inactive); with HCT-15 it was greater than 100 µM; in the test with SN12C it was > 100 µM (inactive); in the test on IGROV-1, > 100 µM (inactive); with OVCAR-4 it was > 100 µM (inactive). Further, the GI50 in the test on DU-145 is > 100 µM (inactive).

Turning to `COC(=O)[C@H](CCSC)NC(=O)N[C@H](C)c1ccccc1`, the GI50 in the test on HCT-116, with MDA-MB-231, in the test with SK-MEL-2, in the test with 786-0, with SK-MEL-28 and in the test with CAKI-1 was > 100 µM (inactive) in each case. For the same compound, the GI50 in the test on SF-539, with HL-60, with EKVX, with HT-29, with COLO 205 and in the test on SK-OV-3 was > 100 µM (inactive) each time. Further, the GI50 was > 100 µM (inactive) with SF-295; > 100 µM (inactive) in the test on A549; greater than 100 µM in the test on HCT-15; > 100 µM (inactive) with SN12C; > 100 µM (inactive) with IGROV-1; > 100 µM (inactive) in the test on OVCAR-4. Also, in the test on DU-145, the GI50 is > 100 µM (inactive).

As for `O=C(CSCC(=O)N/N=C\c1ccc(-c2ccccc2)cc1)N/N=C\c1ccc(-c2ccccc2)cc1`, the GI50 is 9.27 µM (inactive) with HCT-116; 10.7 µM (inactive) in the test on MDA-MB-231; 16 µM (inactive) with SK-MEL-2; 50.5 µM (inactive) with RXF 393; 33.2 µM (inactive) in the test on 786-0; 29.6 µM (inactive) in the test on SK-MEL-28. Further, the GI50 was 40.5 µM (inactive) in the test on CAKI-1; 19.4 µM (inactive) in the test with SF-539; 45.2 µM (inactive) in the test on EKVX; 23 µM (inactive) in the test with HT-29; 13.6 µM (inactive) with COLO 205; 18.9 µM (inactive) in the test with SK-OV-3. Also, the GI50 was 18.2 µM (inactive) with SF-295; 25.8 µM (inactive) with A549; 26.1 µM with HCT-15; 24.7 µM (inactive) in the test with SN12C; 11.8 µM (inactive) with IGROV-1; 20.7 µM (inactive) with OVCAR-4. Further, the GI50 with DU-145 was 33 µM (inactive).

Take `O=C1Nc2ccc(Br)cc2/C1=N/S(=O)(=O)O`: the GI50 is 10.6 µM (inactive) in the test on HCT-116; 16.3 µM (inactive) in the test on MDA-MB-231; 6.61 µM (inactive) in the test on SK-MEL-2; 48.4 µM (inactive) in the test with RXF 393; 25.4 µM (inactive) in the test with 786-0; 30.9 µM (inactive) with SK-MEL-28. The GI50 in the test on CAKI-1 is 35.6 µM (inactive); with HL-60, 12.9 µM (inactive); in the test on EKVX, 29.2 µM (inactive); with HT-29, 40.1 µM (inactive); in the test on COLO 205 it was 46.8 µM (inactive); with SK-OV-3 it was 79.8 µM (inactive). For the same compound, the GI50 was 33.7 µM (inactive) with SF-295; 26.1 µM (inactive) in the test with A549; 21.9 µM in the test with HCT-15; 18.4 µM (inactive) with SN12C; 55.2 µM (inactive) in the test on IGROV-1; 19 µM (inactive) in the test with OVCAR-4. In addition, the GI50 with DU-145 is 57.1 µM (inactive).

With `NNC(=O)C(O)C(O)C(=O)NN` (configuration not stated), the GI50 in the test on HCT-116 was 73.3 µM (inactive); in the test on MDA-MB-231, > 100 µM (inactive); with SK-MEL-2 it was > 100 µM (inactive); with RXF 393 it was > 100 µM (inactive); in the test on 786-0, 98.4 µM (inactive); in the test with SK-MEL-28 it was > 100 µM (inactive). Moreover, the GI50 in the test with CAKI-1, in the test with EKVX, with HT-29, with COLO 205, with SK-OV-3 and in the test with SF-295 was > 100 µM (inactive) throughout. Moreover, the GI50 was 66.4 µM (inactive) in the test with A549; greater than 100 µM in the test on HCT-15; > 100 µM (inactive) with SN12C; > 100 µM (inactive) with IGROV-1; > 100 µM (inactive) in the test with OVCAR-4; > 100 µM (inactive) with DU-145.

In the case of `C=CC(Cl)(CBr)CCC(Br)=C(C)C` (configuration not stated), the GI50 in the test on HCT-116 is 23.6 µM (inactive); in the test on MDA-MB-231 it was 19.4 µM (inactive); with SK-MEL-2 it was 16.6 µM (inactive); with RXF 393, 17.5 µM (inactive); with 786-0, 25.6 µM (inactive); in the test on SK-MEL-28 it was 20 µM (inactive). For the same compound, the GI50 in the test on CAKI-1 was 9.31 µM (inactive); in the test on SF-539, 21.4 µM (inactive); in the test with EKVX it was 35.4 µM (inactive); with HT-29 it was 19.5 µM (inactive); with COLO 205, 17.9 µM (inactive); with SF-295, 35.9 µM (inactive). The GI50 in the test on A549 is 43.6 µM (inactive); with HCT-15, 10.4 µM; with SN12C, 16.9 µM (inactive); in the test on IGROV-1, 12.1 µM (inactive); with OVCAR-4, 20.8 µM (inactive); in the test on DU-145, 33.3 µM (inactive).

With `CC(=O)O[C@@H]1C[C@@]2(C)[C@@H]3CC=C4[C@@H](C[C@H](O)C(=O)C4(C)C)[C@]3(C)C(=O)C[C@]2(C)[C@H]1[C@@](C)(O)C(=O)/C=C/C(C)(C)OC(C)=O`, the GI50 in the test on HCT-116 was 1.63 µM (inactive); in the test on MDA-MB-231, 2.78 µM (inactive); in the test with SK-MEL-2, 1.26 µM (inactive); in the test on 786-0, 0.352 µM (active); in the test on SK-MEL-28, 0.365 µM (active); with CAKI-1 it was 0.211 µM (active). The GI50 with SF-539 was 1.25 µM (inactive); with HL-60 it was 0.746 µM (active); in the test with EKVX, 2.72 µM (inactive); in the test with HT-29, 1.08 µM (active); with COLO 205, 1.5 µM (inactive); in the test on SK-OV-3, < 0.0251 µM (active). Also, the GI50 with SF-295 was 1.2 µM (inactive); in the test with A549, 0.881 µM (active); in the test on HCT-15 it was 0.875 µM; in the test on SN12C, 0.957 µM (active); in the test on IGROV-1 it was 0.368 µM (active); with OVCAR-4, 0.789 µM (active). Also, in the test with DU-145, the GI50 is 2.03 µM (inactive).

Consider `CCOC(=O)N(CC)c1c(C(F)(F)F)cc(-c2ccccc2)[nH]c1=O`, for which the GI50 with HCT-116 is 48.5 µM (inactive); with MDA-MB-231, > 100 µM (inactive); in the test on SK-MEL-2, 72.6 µM (inactive); in the test on RXF 393 it was 28.2 µM (inactive); in the test with 786-0, 64.3 µM (inactive); in the test on SK-MEL-28, 70.6 µM (inactive). In addition, the GI50 was > 100 µM (inactive) in the test on CAKI-1; 13.6 µM (inactive) in the test on HL-60; 33.5 µM (inactive) in the test on EKVX; 61.1 µM (inactive) in the test on HT-29; 32.4 µM (inactive) in the test on COLO 205; 92 µM (inactive) in the test on SK-OV-3. Moreover, the GI50 in the test with SF-295 is 33.4 µM (inactive); with A549, 45.3 µM (inactive); in the test with HCT-15 it was 40.6 µM; with SN12C it was 48.6 µM (inactive); with IGROV-1, 47.2 µM (inactive); with OVCAR-4, 30.8 µM (inactive). The GI50 in the test on DU-145 is 72.3 µM (inactive).

Consider `C#CCn1ncc2c(SCc3ccccc3)ncnc21`, for which the GI50 with HCT-116 was 62.8 µM (inactive); with MDA-MB-231, > 100 µM (inactive); with SK-MEL-2, > 100 µM (inactive); in the test with RXF 393, > 100 µM (inactive); in the test with 786-0, > 100 µM (inactive); with SK-MEL-28, > 100 µM (inactive). The GI50 with CAKI-1 is 57.8 µM (inactive); in the test with SF-539, > 100 µM (inactive); with EKVX it was 97.7 µM (inactive); in the test with HT-29, > 100 µM (inactive); in the test on COLO 205 it was > 100 µM (inactive); in the test with SK-OV-3, > 100 µM (inactive). The GI50 with SF-295 is 53.5 µM (inactive); in the test on A549, > 100 µM (inactive); in the test on HCT-15, greater than 100 µM; in the test on SN12C, > 100 µM (inactive); in the test on IGROV-1, > 100 µM (inactive); in the test on OVCAR-4 it was > 100 µM (inactive). Besides, in the test with DU-145, the GI50 was > 100 µM (inactive).
